Values quoted from earlier work in US20250311762A1, “FORMULATION AND METHOD FOR AN EXERCISE SUPPORTING NUTRITIONAL SUPPLEMENT” (BullFit, LLC., priority 2024, published 2025).

Tests used:
cognitive function = conditions: 2 g per day for 5 days during a demanding military combat training course
[1] = system: anaerobic strength performance; conditions: athletes supplementing with Betaine

| SMILES | cognitive function relative to placebo (cognitive function) | squat, bench press, and other activities [1] |
| --- | --- | --- |
| N[C@@H](Cc1ccc(O)cc1)C(=O)O [L-tyrosine, L-Tyrosine] | improved various aspects of cognitive function relative to placebo |  |
| C[N+](C)(C)CC(=O)[O-] [Betaine, trimethylglycine] |  | increased their squat, bench press, and other activities |
